Measurements reported in patent US11180504B2 (ORCHID PHARMA LTD., priority 2016, dated 2021).
≈ marks a conversion by molar mass, not a printed value. Read-outs that look alike come from different tables or passages of the source.

Experiments:
[1] = test system: methicillin-sensitive Staphylococcus aureus; test: MIC by broth micro-dilution (CLSI), methicillin-sensitive S. aureus; assay type: cell-based; conditions: MSSA S. aureus ATCC29213
[2] = test system: carbapenem sensitive Escherichia coli; test: MIC by broth micro-dilution (CLSI), carbapenem sensitive E. coli; assay type: cell-based
[3] = test system: carbapenemase producing K. pneumoniae; test: MIC by broth micro-dilution (CLSI), carbapenemase producing K. pneumoniae; assay type: cell-based, Klebsiella pneumoniae
[4] = test system: carbapenem sensitive Pseudomonas aeruginosa; test: MIC by broth micro-dilution (CLSI), carbapenem sensitive P. aeruginosa; assay type: cell-based
[5] = Staphylococcus aureus, ATCC 29213 / MSSA, read-out: MIC
[6] = Escherichia coli, ATCC25922, ESBL −ve E. coli ATCC25922, read-out: MIC
[7] = Klebsiella pneumoniae, ATCCBAA1705, KPC-2 K. pneumoniae ATCC BAA-1705, read-out: MIC
[8] = Pseudomonas aeruginosa, ATCC27853, Meropenem susceptible P. aeruginosa ATCC27853, read-out: MIC

| MIC [1, 5] [µg/mL] | MIC [2, 6] [µg/mL] | MIC [3, 7] [µg/mL] | MIC [4, 8] [µg/mL] | MIC [1] [µg/mL] | MIC ([2]; ESBL −ve E. coli ATCC25922) [µg/mL] | MIC ([3]; KPC-2 K. pneumoniae ATCC BAA-1705) [µg/mL] | MIC ([4]; Meropenem susceptible P. aeruginosa ATCC27853) [µg/mL] | Structure (SMILES) |
| --- | --- | --- | --- | --- | --- | --- | --- | --- |
| 4 (≈ 7.1 µM) | 0.5 (≈ 0.887 µM) | 2 (≈ 3.55 µM) | 2 (≈ 3.55 µM) | – | – | – | – | C[C@@H](NC(=O)Cn1cnnn1)[C@H]1C(=O)N2C(C(=O)O)=C(S[C@@H]3CN[C@H](C(=O)N4CC[C@H](N)[C@@H](O)C4)C3)[C@H](C)[C@H]12 [Example 554, (4R,5S,6R)-6-((R)-1-(2-(1H-tetrazol-1-yl)acetamido)ethyl)-3-((3S,5S)-5-((3S,4S)-4-amino-3-hydroxypiperidine-1-carbonyl)-pyrrolidin-3-ylthio)-4-methyl-7-oxo-1-azabicyclo[3.2.0]hept-2-ene-2-carboxylic acid] |
| 16 (≈ 25.9 µM) | 0.5 (≈ 0.809 µM) | 2 (≈ 3.24 µM) | 2 (≈ 3.24 µM) | – | – | – | – | C[C@@H](NC(=O)Cn1cnnn1)[C@H]1C(=O)N2C(C(=O)O)=C(S[C@@H]3CN[C@H](C(=O)N4CCC5CNCC5(C(=O)O)C4)C3)[C@H](C)[C@H]12 (stereo partly drawn) [Example 562, 5-((2S,4S)-4-((4R,5S,6R)-6-((R)-1-(2-(1H-tetrazol-1-yl)acetamido)ethyl)-2-carboxy-4-methyl-7-oxo-1-azabicyclo[3.2.0]hept-2-en-3-yl-thio)pyrrolidine-2-carbonyl)octahydro-1H-pyrrolo[3,4-c]pyridine-3a-carboxylic acid] |
| – | – | – | – | 16 (≈ 25.9 µM) | 0.25 (≈ 0.405 µM) | 2 (≈ 3.24 µM) | 2 (≈ 3.24 µM) | C[C@@H](NC(=O)Cn1cnnn1)[C@H]1C(=O)N2C(C(=O)O)=C(S[C@@H]3CN[C@H](C(=O)N4CCC5CNCC5(C(=O)O)C4)C3)[C@H](C)[C@H]12 (stereo partly drawn) [Example 563, 5-((2S,4S)-4-((4R,5S,6R)-6-((R)-1-(2-(1H-tetrazol-1-yl)acetamido)ethyl)-2-carboxy-4-methyl-7-oxo-1-azabicyclo[3.2.0]hept-2-en-3-yl-thio)pyrrolidine-2-carbonyl)octahydro-1H-pyrrolo[3,4-c]pyridine-3a-carboxylic acid] |
| 2 (≈ 3.41 µM) | 0.125 (≈ 0.213 µM) | 1 (≈ 1.71 µM) | 1 (≈ 1.71 µM) | – | – | – | – | C[C@@H](NC(=O)Cn1cnnn1)[C@H]1C(=O)N2C(C(=O)O)=C(S[C@@H]3CN[C@H](C(=O)N4CC5C[C@@H]6C[C@]5(CN6)C4)C3)[C@H](C)[C@H]12 (stereo partly drawn) [Example 564, (4R,5S,6R)-6-((R)-1-(2-(1H-tetrazol-1-yl)acetamido)ethyl)-3-((3S,5S)-5-((1S,7R)-3,8-Diaza-tricyclo[5.2.1.01,5]decane-3-carbonyl)-pyrrolidin-3-ylthio)-4-methyl-7-oxo-1-azabicyclo[3.2.0]hept-2-ene-2-carbnxylic acid] |
| 2 (≈ 3.39 µM) | 0.25 (≈ 0.423 µM) | 2 (≈ 3.39 µM) | 1 (≈ 1.69 µM) | – | – | – | – | C[C@@H](NC(=O)Cn1cnnn1)[C@H]1C(=O)N2C(C(=O)O)=C(S[C@@H]3CN[C@H](C(=O)N4C[C@H](N)[C@H](NC(=N)N)C4)C3)[C@H](C)[C@H]12 [Example 565, (4R,5S,6R)-6-((R)-1-(2-(1H-tetrazol-1-yl)acetamido)ethyl)-3-((3S,5S)-5-((3S,4R)-3-amino-4-guanidinopyrrolidine-1-carbonyl)-pyrrolidin-3-ylthio)-4-methyl-7-oxo-1-azabicyclo[3.2.0]hept-2-ene-2-carboxylic acid] |
| 0.5 (≈ 0.89 µM) | 0.06 (≈ 0.107 µM) | 0.5 (≈ 0.89 µM) | 0.25 (≈ 0.445 µM) | – | – | – | – | C[C@@H](NC(=O)Cn1cnnn1)[C@H]1C(=O)N2C(C(=O)O)=C(S[C@@H]3CN[C@H](C(=O)N4CC(NC(=N)N)C4)C3)[C@H](C)[C@H]12 [Example 566, (4R,5S,6R)-6-((R)-1-(2-(1H-tetrazol-1-yl)acetamido)ethyl)-3-((3S,5S)-5-(3-guanidinoazetidine-1-carbonyl)pyrrolidin-3-ylthio)-4-methyl-7-oxo-1-azabicyclo[3.2.0]hept-2-ene-2-carboxylic acid] |
| 1 (≈ 1.58 µM) | 0.125 (≈ 0.198 µM) | 0.5 (≈ 0.79 µM) | 1 (≈ 1.58 µM) | – | – | – | – | C[C@@H](NC(=O)Cn1cnnn1)[C@H]1C(=O)N2C(C(=O)O)=C(S[C@@H]3CN[C@H](C(=O)N4CC[C@@H](NC(=O)CNC(=N)N)C4)C3)[C@H](C)[C@H]12 [Example 567, (4R,5S,6R)-6-((R)-1-(2-(1H-tetrazol-1-yl)acetamido)ethyl)-3-((3S,5S)-5-((R)-3-(2-guanidinoacetamido)pyrrolidine-1-carbonyl)pyrrolidin-3-ylthio)-4-methyl-7-oxo-1-azabicyclo[3.2.0]hept-2-ene-2-carboxylic acid] |
| 16 (≈ 30.7 µM) | 1 (≈ 1.92 µM) | 2 (≈ 3.84 µM) | 4 (≈ 7.68 µM) | – | – | – | – | C[C@@H](NC(=O)CC1CNC1)[C@H]1C(=O)N2C(C(=O)O)=C(S[C@@H]3CN[C@H](C(=O)N4CC[C@@H](N)C4)C3)[C@H](C)[C@H]12 [Example 568, (4R,5S,6R)-3-((3S,5S)-5-((R)-3-aminopyrrolidine-1-carbonyl)pyrroldin-3-ylthio)-6-((R)-1-(2-(azetidin-3-yl)acetamido)ethyl)-4-methyl-7-oxo-1-azabicyclo[3.2.0]hept-2-ene-2-carboxylic acid] |
| 1 (≈ 1.71 µM) | 0.06 (≈ 0.102 µM) | 0.5 (≈ 0.854 µM) | 1 (≈ 1.71 µM) | – | – | – | – | C[C@@H](NC(=O)Cn1cnnn1)[C@H]1C(=O)N2C(C(=O)O)=C(S[C@@H]3CN[C@H](C(=O)N4C[C@@]56CNCC5C[C@@H]4C6)C3)[C@H](C)[C@H]12 (stereo partly drawn) [Example 571, (4R,5S,6R)-6-((R)-1-(2-(1H-tetrazol-1-yl)acetamido)ethyl)-3-((3S,5S)-5-((1R,7R)-3,8-Diaza-tricyclo[5.2.1.01,5]decane-8-carbonyl)-pyrrolidin-3-ylthio)-4-methyl-7-oxo-1-azabicyclo[3.2.0]hept-2-ene-2-carboxylic acid] |
| 8 (≈ 13.6 µM) | 0.5 (≈ 0.849 µM) | 4 (≈ 6.79 µM) | 2 (≈ 3.4 µM) | – | – | – | – | C[C@@H](NC(=O)Cn1cnnn1)[C@H]1C(=O)N2C(C(=O)O)=C(S[C@@H]3CN[C@H](C(=O)N4C[C@H]5C[C@H](N)C[C@@]5(N)C4)C3)[C@H](C)[C@H]12 [Example 574, (4R,5S,6R)-6-((R)-1-(2-(1H-tetrazol-1-yl)acetamido)ethyl)-3-((3S,5S)-5-((3aS,5S,6aR)-3a,5-diaminooctahydrocyclo-penta[c]pyrrole-2-carbonyl)pyrrolidin-3-ylthio)-4-methyl-7-oxo-1-azabicyclo[3.2.0]hept-2-ene-2-carboxylic acid] |
| 1 (≈ 1.65 µM) | 0.125 (≈ 0.206 µM) | 0.5 (≈ 0.826 µM) | 0.25 (≈ 0.413 µM) | – | – | – | – | C[C@@H](NC(=O)Cn1cnnn1)[C@H]1C(=O)N2C(C(=O)O)=C(S[C@@H]3CN[C@H](C(=O)N4C[C@@H](NC(=N)N)C[C@H]4CO)C3)[C@H](C)[C@H]12 [Example 576, (4R,5S,6R)-6-((R)-1-(2-(1H-tetrazol-1-yl)acetamido)ethyl)-3-((3S,5S)-5-((2S,4S)-4-guanidino-2-(hydroxymethyl)-pyrrolidine-1-carbonyl)pyrrolidin-3-ylthio)-4-methyl-7-oxo-1-azabicyclo[3.2.0]hept-2-ene-2-carboxylic acid] |
| 4 (≈ 6.64 µM) | 0.25 (≈ 0.415 µM) | 2 (≈ 3.32 µM) | 4 (≈ 6.64 µM) | – | – | – | – | C[C@@H](NC(=O)Cn1cnnn1)[C@H]1C(=O)N2C(C(=O)O)=C(S[C@@H]3CN[C@H](C(=O)N4CC5CCN(CCN)C5C4)C3)[C@H](C)[C@H]12 (stereo partly drawn) [Example 577, (4R,5S,6R)-6-((R)-1-(2-(1H-tetrazol-1-yl)acetamido)ethyl)-3-((3S,5S)-5-(1-(2-aminoethyl)octahydropyrrolo[3,4-b]pyrrole-5-carbonyl)pyrrolidin-3-ylthio)-4-methyl-7-oxo-1-azabicyclo[3.2.0]hept-2-ene-2-carboxylic acid] |
| 4 (≈ 9.14 µM) | 0.25 (≈ 0.571 µM) | 1 (≈ 2.29 µM) | 16 (≈ 36.6 µM) | – | – | – | – | C[C@@H](NC(=O)Cn1cnnn1)[C@H]1C(=O)N2C(C(=O)O)=C(SCCNC(=N)N)[C@H](C)[C@H]12 [Example 579, (4R,5S,6R)-6-((R)-1-(2-(1H-tetrazol-1-yl)acetamido)ethyl)-3-(2-guanidinoethylthio)-4-methyl-7-oxo-1-azabicyclo[3.2.0]hept-2-ene-carboxylic acid] |
| 2 (≈ 3.49 µM) | 0.25 (≈ 0.436 µM) | 1 (≈ 1.74 µM) | 0.5 (≈ 0.872 µM) | – | – | – | – | C[C@@H](NC(=O)Cn1cnnn1)[C@H]1C(=O)N2C(C(=O)O)=C(S[C@@H]3CN[C@H](C(=O)N4C[C@@H]5NC(=N)N[C@@H]5C4)C3)[C@H](C)[C@H]12 [Example 580, (4R,5S,6R)-6-((R)-1-(2-(1H-tetrazol-1-yl)acetamido)ethyl)-3-((3S,5S)-5-((3aR,6aS)-2-iminooctahydropyrrolo[3,4-d]imidazole-5-carbonyl)pyrrolidin-3-ylthio)-methyl-7-oxo-1-azabicyclo[3.2.0]hept-2-ene-2-carboxylic acid] |
| 8 (≈ 13 µM) | 0.5 (≈ 0.812 µM) | 8 (≈ 13 µM) | 64 (≈ 104 µM) | – | – | – | – | C[C@@H](NC(=O)Cn1cnnn1)[C@H]1C(=O)N2C(C(=O)O)=C(S[C@@H]3CN[C@H](C(=O)N4CC5CC(NC(=N)N)CC5C4)C3)[C@H](C)[C@H]12 (stereo partly drawn) [Example 581, (4R,5S,6R)-6-((R)-1-(2-(1H-tetrazol-yl)acetamido)ethyl)-3-((3S,5S)-5-(5-guanidinooctahydroyclopenta[c]pyrrole-2-carbonyl)pyrrolidin-3-ylthio)-4-methyl-7-oxo-1-azabicyclo[3.2.0]hept-2-ene-2-carboxylic acid] |
| 2 (≈ 3.47 µM) | 0.25 (≈ 0.434 µM) | 2 (≈ 3.47 µM) | 0.5 (≈ 0.869 µM) | – | – | – | – | C[C@@H](NC(=O)Cn1cnnn1)[C@H]1C(=O)N2C(C(=O)O)=C(S[C@@H]3CN[C@H](C(=O)N4CC[C@H](NC(=N)N)C4)C3)[C@H](C)[C@H]12 [Example 582, (4R,5S,6R)-6-((R)-1-(2-(1H-tetrazol-1-yl)acetamido)-ethyl)-3-((3S,5S)-5-((S)-3-guanidino-pyrrolidine-1-carbonyl)pyrrolidin-3-ylthio)-4-methyl-7-oxo-1-azabicyclo[3.2.0]hept-ene-2-carboxylic acid] |
